Assay results published in patent US20230266302A1, “SYNTHESIS AND USE OF N-BENZYL SULFONAMIDES” (THE UNIVERSITY OF TULSA, priority 2020, published 2023).

Legend:
Type in all cases: cell-based
SkBr3 (breast cancer) = assay: ATP level assay (CellTiter-Glo), percent of control; conditions: two hour incubation; for activity at 100 µM: Homo sapiens, SK-BR-3, 2 h, compound alone, control DMSO, read-out: POC (percent of control) SkBr3
HDF (normal cells) = assay: as above; conditions: two hour incubation; for activity at 100 µM: 2 h, compound alone, control DMSO, read-out: POC (percent of control) HDF
H293 (kidney cancer) = assay: Cytotoxicity testing, CellTiter-Blue assay (FIG. 9); conditions: 100 μM, 24 hour compound incubation, result in words
Description: The cytotoxicity tests were carried out in the following manner. Living cells are known to convert resazurin to the fluorescent compound resorufin. Test systems which rely upon this reaction are commercially available. One such test is known at the Cell Titer Blue Cell Viability test assay from Promega. Cell cultures for each of the identified cancer lines were obtained from ATCC and maintained in Dulbecco's Modified Eagle Medium (DMEM) supplemented with 10% fetal bovine serum (FBS) and pen/strep. As known to those skilled in the art, DMEM typically includes the components identified below.
The test method provides for incubating the cell cultures at 37° C. Additionally, the cell cultures are kept under an atmosphere containing 5% CO2. After allowing for proliferation of the cells, the cells were distributed across a plurality of test cells containing from 100 μL DMEM plus 10% FBS and allowed to attach to the surface of the cells. Typically, the time for attachment will require about 12 hours to about 18 hours. Following attachment, the cells were treated with either a solvent control or the N-benzyl sulfonamide compound of interest dissolved in a suitable solvent such as but not limited to DMSO. Typically, about 18 hours to about 36 hours are required to determine the effect of the N-benzyl sulfonamide compound of interest on cell viability. Following treatment of the cells with the N-benzyl sulfonamide or control, the toxicity of the compound to the cells will be determined by addition of 10 μl of CellTiter-Blue reagent, i.e. resazurin. Typically, the resazurin is added between about 18 hours to about 36 hours after treating the cells with the N-benzyl sulfonamides or the control. The cells are allowed to consume and convert the resazurin to resorufin for about one to four hours. Subsequently, the fluorescence of […] is measured by excitation at 560 nm and recording the emission at 590 nm within an instrument configured to measure fluorescence intensity. Two commercially available systems are the BioTek Cytation 5 plate reader and the Promega Glomax Multi+detection system. […] The method for determining IC50 values is well known in the art and will not be discussed further. As known to those skilled in the art, IC50 is a quantitative measure that indicates how much of a particular inhibitory substance (e.g. drug) is needed to inhibit, in vitro, a given biological process or biological component by 50%. Therefore, each N-benzyl sulfonamide will be tested over a range of concentrations. Typically, the concentration ranges will be: 6.25 μM, 12.5 μM, 25 μM, 50 μM, and 100 μM. The control in this method is normally dimethyl […] (DMSO) or other solvent suitable for dissolving the compounds to be tested. FIG. 8 depicts the % cell viability for the indicated compounds depicted in FIG. 7.
The Table of FIG. 9 provides the results of cytotoxicity testing a 100 μM concentration of compounds 2, 5-9, 11-12, 14, 16, 18-22 of FIG. 7 against the indicated cancer cell lines using CellTiter-Blue assay with 24 hour compound incubation time. FIG. 9 reflects the percent reduction in cell viability resulting from the treatment of the indicated cancer cell lines with the indicated compounds. As indicated by the boxed values in FIG. 9, compounds 2, 5, and 6 would be considered effective against H293. […] The Table of FIG. 10 provides a comparison of the IC50 values of select compounds from FIG. 7 to the IC50 values of two known anti-cancer sulfonamides, ABT-751 and Indisulam. As indicated by FIG. 10, the identified compounds performed remarkably better than the known anti-cancer agents. Thus, the identified compounds are expected to have greater anti-cancer potency.

[1] = compound 100 uM + 2DG (about 10-20 mM)
[2] = compound 100 uM + rotenone (approximately 1.25 μM)

O=S(=O)(NCc1c[nH]c2ccccc12)c1ccc(Cl)cc1 [Compound 2, N-[(1H-indol-3-yl)methyl]-4-chlorobenzenesulfonamide]
activity at 100 µM (SkBr3 (breast cancer)): 72.6% | POC (percent of control) SkBr3 (SkBr3 (breast cancer); [1]): 38% of control | POC (percent of control) SkBr3 (SkBr3 (breast cancer); [2]): 72.6% of control | activity at 100 µM (HDF (normal cells)): 49.3% | POC (percent of control) HDF (HDF (normal cells); [1]): 37.5% of control | POC (percent of control) HDF (HDF (normal cells); [2]): 57.6% of control | percent reduction in cell viability, H293 (H293 (kidney cancer)): effective

Cc1cccc2c(CNS(=O)(=O)c3ccccc3)c[nH]c12 [Compound 6, N-[(7-methyl-1H-indol-3-yl)methyl]benzenesulfonamide]
activity at 100 µM (SkBr3 (breast cancer)): 97% | POC (percent of control) SkBr3 (SkBr3 (breast cancer); [1]): 55.9% of control | POC (percent of control) SkBr3 (SkBr3 (breast cancer); [2]): 79.4% of control | activity at 100 µM (HDF (normal cells)): 48.8% | POC (percent of control) HDF (HDF (normal cells); [1]): 37.7% of control | POC (percent of control) HDF (HDF (normal cells); [2]): 61.3% of control | percent reduction in cell viability, H293 (H293 (kidney cancer)): effective

Cc1ccc(S(=O)(=O)NCc2c[nH]c3cccc(Br)c23)cc1 [Compound 5, N-[(4-bromo-1H-indol-3-yl)methyl]-4-methylbenzenesulfonamide]
activity at 100 µM (SkBr3 (breast cancer)): 71.1% | POC (percent of control) SkBr3 (SkBr3 (breast cancer); [1]): 37.1% of control | POC (percent of control) SkBr3 (SkBr3 (breast cancer); [2]): 60% of control | activity at 100 µM (HDF (normal cells)): 70.5% | POC (percent of control) HDF (HDF (normal cells); [1]): 16.1% of control | POC (percent of control) HDF (HDF (normal cells); [2]): 83.5% of control | percent reduction in cell viability, H293 (H293 (kidney cancer)): effective
